Measurements reported in PMC3813382 (The Journal of General Physiology, 2013).

Target: T1, C236A Slo2.1 channels (Homo sapiens, UniProt Q6UVM3, C236A)
T1 sequence (Q6UVM3 1-1135 C236A): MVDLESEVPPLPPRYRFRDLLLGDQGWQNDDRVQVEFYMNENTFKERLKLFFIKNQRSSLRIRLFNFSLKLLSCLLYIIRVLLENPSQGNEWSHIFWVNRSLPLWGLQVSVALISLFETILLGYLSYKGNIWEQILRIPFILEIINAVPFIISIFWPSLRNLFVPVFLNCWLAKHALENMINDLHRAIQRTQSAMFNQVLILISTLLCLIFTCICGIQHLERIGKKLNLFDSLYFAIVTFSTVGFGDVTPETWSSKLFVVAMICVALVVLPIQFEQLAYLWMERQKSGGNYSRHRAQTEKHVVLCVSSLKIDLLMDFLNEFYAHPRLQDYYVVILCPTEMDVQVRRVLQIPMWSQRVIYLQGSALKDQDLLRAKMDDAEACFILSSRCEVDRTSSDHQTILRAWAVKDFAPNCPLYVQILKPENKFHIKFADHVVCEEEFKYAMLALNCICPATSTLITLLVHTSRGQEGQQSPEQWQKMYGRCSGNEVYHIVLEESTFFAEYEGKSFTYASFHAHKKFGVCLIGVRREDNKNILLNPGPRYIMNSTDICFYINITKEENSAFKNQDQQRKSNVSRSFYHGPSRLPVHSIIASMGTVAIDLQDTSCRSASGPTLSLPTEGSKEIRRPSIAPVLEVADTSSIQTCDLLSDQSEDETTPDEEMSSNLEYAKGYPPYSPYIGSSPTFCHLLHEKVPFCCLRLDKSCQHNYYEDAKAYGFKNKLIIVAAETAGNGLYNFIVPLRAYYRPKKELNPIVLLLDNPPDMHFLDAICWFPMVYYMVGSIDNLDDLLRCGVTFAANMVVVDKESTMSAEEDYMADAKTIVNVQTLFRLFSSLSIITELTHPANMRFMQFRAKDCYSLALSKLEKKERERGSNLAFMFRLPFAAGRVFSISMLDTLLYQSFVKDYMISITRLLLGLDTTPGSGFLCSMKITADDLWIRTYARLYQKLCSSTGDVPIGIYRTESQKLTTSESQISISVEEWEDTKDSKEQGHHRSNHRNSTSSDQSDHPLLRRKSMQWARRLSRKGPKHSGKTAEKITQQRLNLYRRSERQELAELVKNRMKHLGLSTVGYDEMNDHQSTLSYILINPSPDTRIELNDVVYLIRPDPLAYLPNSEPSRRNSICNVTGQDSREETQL
Test: Activation of ISlo2.1 by NFA, two-electrode voltage clamp in oocytes
Format: cell-based
Settings: 1 mM NFA, 0 mV

response of C236A channels to NFA: insensitive to 1 mM NFA
SMILES: O=C(O)c1cccnc1Nc1cccc(C(F)(F)F)c1 [NFA, niflumic acid]
